Measured values: patent US6358885B1, “Substituted phenylheterocyclic herbicides” (Mississippi State University, priority 1992, dated 2002)

Legend:
[1] = system: umbrella sedge; test: Test C flood test plant response rating 0 to 100; format: in vivo, Cyperus difformis
Source text: (§1) The compounds evaluated in this test were formulated in a non-phytoxic solvent and applied to the soil surface before plant seedlings emerged (preemergence application), to water that covered the soil surface (flood application), and to plants that were in the one-to-four leaf stage (postemergence application). A sandy loam soil was used for the preemergence and postemergence tests, while a silt loam soil was used in the flood test. Water depth was approximately 2.5 cm for the flood test and was maintained at this level for the duration of the test. Plant species in the preemergence and postemergence tests consisted of barley (Hordeum vulgare), bedstraw (Galium aparine), blackgrass (Alopecurus myosuroides), chickweed (Stellaria media), corn (Zea mays), cotton (Gossypium hirsutum), crabgrass (Digitaria sanguinalis), downy brome (Bromus tectorum), giant foxtail (Setaria faberii), lambsquarters (Chenopodium album), morningglory (Ipomoea hederacea), pigweed ([…]), rape (Brassica napus), ryegrass (Lolium multiflorum), sorghum (Sorghum bicolor), soybean (Glycine max), speedwell (Veronica persica), sugar beet (Beta vulgaris), velvetleaf (Abutilon theophrasti), wheat (Triticum aestivum), wild buckwheat (Polygonum convolvulus), and wild oat (Avena fatua). All plant species were planted one day before application of the compound for the preemergence portion-of this test. Plantings of these species were adjusted to produce plants of appropriate size for the post-emergence portion of the test. […] All plant species were grown using normal greenhouse practices. Visual evaluations of injury expressed on treated plants, when compared to untreated controls, were recorded approximately fourteen to twenty one days after application of the test compound. […] A dash (-) response means no test result.

[2] = system: cotton; test: Test C preemergence/postemergence greenhouse plant response rating 0 to 100; format: in vivo, Gossypium hirsutum; conditions: POSTEMERGENCE
Source text: as §1

[3] = system: barnyardgrass; test: Test B preemergence/postemergence greenhouse plant response rating 0 to 10; format: in vivo, Echinochloa crus-galli; conditions: 0 to 10 scale
Method in brief: (§2)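 Planted seeds are treated preemergence with compound dissolved in a non-phytotoxic solvent, while postemergence applications go onto plants of two to eighteen cm. Plants stay in the greenhouse twelve to sixteen days and are then rated visually relative to controls.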

[4] = system: wild buckwheat; test: as above; format: in vivo, Polygonum convolvulus; conditions: POSTEMERGENCE, 0 to 10 scale
Method in brief: as §2

[5] = system: downy brome; test: Test C preemergence/postemergence greenhouse plant response rating 0 to 100; format: in vivo, Bromus tectorum; conditions: POSTEMERGENCE
Source text: as §1

[6] = system: giant foxtail; test: as above; format: in vivo, Setaria faberii; conditions: POSTEMERGENCE
Source text: as §1

[7] = system: rape; test: as above; format: in vivo, Brassica napus; conditions: POSTEMERGENCE
Source text: as §1

[8] = system: wild oat; test: Test B preemergence/postemergence greenhouse plant response rating 0 to 10; format: in vivo, Avena fatua; conditions: 0 to 10 scale
Method in brief: as §2

[9] = system: soybean; test: Test C preemergence/postemergence greenhouse plant response rating 0 to 100; format: in vivo, Glycine max; conditions: POSTEMERGENCE
Source text: as §1

[10] = system: chickweed; test: as above; format: in vivo, Stellaria media; conditions: POSTEMERGENCE
Source text: as §1

[11] = system: rice; test: Test C flood test plant response rating 0 to 100; format: in vivo, Oryza sativa
Source text: as §1

[12] = system: crabgrass; test: Test B preemergence/postemergence greenhouse plant response rating 0 to 10; format: in vivo, Digitaria spp.; conditions: 0 to 10 scale
Method in brief: as §2

[13] = system: cocklebur; test: as above; format: in vivo, Xanthium pensylvanicum; conditions: 0 to 10 scale
Method in brief: as §2

[14] = system: wild oat; test: Test C preemergence/postemergence greenhouse plant response rating 0 to 100; format: in vivo, Avena fatua; conditions: POSTEMERGENCE
Source text: as §1

[15] = system: barnyardgrass; test: Test C flood test plant response rating 0 to 100; format: in vivo, Echinochloa crus-galli
Source text: as §1

[16] = system: giant foxtail; test: Test B preemergence/postemergence greenhouse plant response rating 0 to 10; format: in vivo, Setaria faberii; conditions: 0 to 10 scale
Method in brief: as §2

[17] = system: lambsquarters; test: as above; format: in vivo, Chenopodium album; conditions: 0 to 10 scale
Method in brief: as §2

[18] = system: purple nutsedge; test: as above; format: in vivo, Cyperus rotundus; conditions: 0 to 10 scale
Method in brief: as §2

[19] = POSTEMERGENCE section, flood test, Rate 1 g/ha
[20] = POSTEMERGENCE section, flood test, Rate 4 g/ha
[21] = Rate 16 g/ha, under POSTEMERGENCE head (flood test species)
[22] = flood test species listed under POSTEMERGENCE, 62 g/ha, 0 to 100 scale

C=CCN1C(=O)COc2cc(F)c(-c3nn4c(c3Cl)CCCC4)cc21 [Compound 33]
Plant response rating (0 to 100), Umbrella sedge [1, 19]: 10 | Plant response rating (0 to 100), Umbrella sedge [1, 20]: 20 | Plant response rating (0 to 100), Umbrella sedge [1, 21]: 70 | Plant response rating Umbrella sedge [1, 22]: 80 | Plant response rating, Cotton ([2]; 62 g/ha, 0 to 100 scale): 100 | Plant response rating (0 to 100), Cotton ([2]; Rate 1 g/ha): 100 | Plant response rating (0 to 100), Cotton ([2]; Rate 4 g/ha): 100 | Plant response rating (0 to 100), Cotton ([2]; Rate 16 g/ha): 100 | Plant response rating, Barnyardgrass ([3]; POSTEMERGENCE, Rate 10 g/ha): 4 | Plant response rating, Barnyardgrass ([3]; POSTEMERGENCE, Rate 50 g/ha): 7 | Plant response rating, Barnyardgrass ([3]; PREEMERGENCE, Rate 10 g/ha): 2 | Plant response rating, Barnyardgrass ([3]; PREEMERGENCE, Rate 50 g/ha): 3 | Plant response rating, Wild buckwheat ([4]; Rate 10 g/ha): 10 | Plant response rating, Wild buckwheat ([4]; Rate 50 g/ha): 10 | Plant response rating Downy Brome ([5]; 62 g/ha, 0 to 100 scale): 60 | Plant response rating (0 to 100), Downy Brome ([5]; Rate 1 g/ha): 30 | Plant response rating (0 to 100), Downy Brome ([5]; Rate 4 g/ha): 40 | Plant response rating (0 to 100), Downy Brome ([5]; Rate 16 g/ha): 60 | Plant response rating, Giant foxtail ([6]; 62 g/ha, 0 to 100 scale): 70 | Plant response rating (0 to 100), Giant foxtail ([6]; Rate 1 g/ha): 0 | Plant response rating (0 to 100), Giant foxtail ([6]; Rate 4 g/ha): 0 | Plant response rating (0 to 100), Giant foxtail ([6]; Rate 16 g/ha): 20 | Plant response rating, Rape ([7]; 62 g/ha, 0 to 100 scale): 100 | Plant response rating (0 to 100), Rape ([7]; Rate 1 g/ha): 100 | Plant response rating (0 to 100), Rape ([7]; Rate 4 g/ha): 100 | Plant response rating (0 to 100), Rape ([7]; Rate 16 g/ha): 100 | Plant response rating, Wild oat ([8]; POSTEMERGENCE, Rate 10 g/ha): 4 | Plant response rating, Wild oat ([8]; POSTEMERGENCE, Rate 50 g/ha): 5 | Plant response rating, Wild oat ([8]; PREEMERGENCE, Rate 50 g/ha): 7 | Plant response rating, Soybean ([9]; 62 g/ha, 0 to 100 scale): 100 | Plant response rating (0 to 100), Soybean ([9]; Rate 1 g/ha): 30 | Plant response rating (0 to 100), Soybean ([9]; Rate 4 g/ha): 40 | Plant response rating (0 to 100), Soybean ([9]; Rate 16 g/ha): 80 | Plant response rating, Chickweed ([10]; 62 g/ha, 0 to 100 scale): 100 | Plant response rating (0 to 100), Chickweed ([10]; Rate 1 g/ha): 40 | Plant response rating (0 to 100), Chickweed ([10]; Rate 4 g/ha): 60 | Plant response rating (0 to 100), Chickweed ([10]; Rate 16 g/ha): 85 | Plant response rating (0 to 100), Rice Japonica [11, 19]: 20 | Plant response rating (0 to 100), Rice Japonica [11, 20]: 50 | Plant response rating (0 to 100), Rice Japonica [11, 21]: 60 | Plant response rating Rice Japonica [11, 22]: 85 | Plant response rating, Crabgrass ([12]; POSTEMERGENCE, Rate 10 g/ha): 3 | Plant response rating, Crabgrass ([12]; POSTEMERGENCE, Rate 50 g/ha): 5 | Plant response rating, Crabgrass ([12]; PREEMERGENCE, Rate 10 g/ha): 2 | Plant response rating, Crabgrass ([12]; PREEMERGENCE, Rate 50 g/ha): 6 | Plant response rating, Cocklebur ([13]; POSTEMERGENCE, Rate 10 g/ha): 10 | Plant response rating, Cocklebur ([13]; POSTEMERGENCE, Rate 50 g/ha): 10 | Plant response rating, Cocklebur ([13]; PREEMERGENCE, Rate 10 g/ha): 0 | Plant response rating, Cocklebur ([13]; PREEMERGENCE, Rate 50 g/ha): 5 | Plant response rating, Wild oat ([14]; 62 g/ha, 0 to 100 scale): 60 | Plant response rating (0 to 100), Wild oat ([14]; Rate 1 g/ha): 30 | Plant response rating (0 to 100), Wild oat ([14]; Rate 4 g/ha): 40 | Plant response rating (0 to 100), Wild oat ([14]; Rate 16 g/ha): 50 | Plant response rating (0 to 100), Barnyardgrass [15, 19]: 35 | Plant response rating (0 to 100), Barnyardgrass ([15]; Rate 4 g/ha, under POSTEMERGENCE head (flood test species)): 65 | Plant response rating (0 to 100), Barnyardgrass [15, 21]: 95 | Plant response rating, Barnyardgrass [15, 22]: 100 | Plant response rating, Giant foxtail ([16]; POSTEMERGENCE, Rate 10 g/ha): 4 | Plant response rating, Giant foxtail ([16]; POSTEMERGENCE, Rate 50 g/ha): 4 | Plant response rating, Giant foxtail ([16]; PREEMERGENCE, Rate 10 g/ha): 2 | Plant response rating, Giant foxtail ([16]; PREEMERGENCE, Rate 50 g/ha): 7 | Plant response rating, Lambsquarter ([17]; POSTEMERGENCE, Rate 10 g/ha): 9 | Plant response rating, Lambsquarter ([17]; POSTEMERGENCE, Rate 50 g/ha): 10 | Plant response rating, Lambsquarter ([17]; PREEMERGENCE, Rate 50 g/ha): 10 | Plant response rating, Nutsedge ([18]; POSTEMERGENCE, Rate 10 g/ha): 0 | Plant response rating, Nutsedge ([18]; POSTEMERGENCE, Rate 50 g/ha): 5 | Plant response rating, Nutsedge ([18]; PREEMERGENCE, Rate 50 g/ha): 0
